Measured values reported in US20120065365A1, “Stable Radiopharmaceutical Compositions and Methods for Their Preparation” (BRACCO IMAGING S.P.A., priority 2003, published 2012).
Counter-ions that a name gives are not always drawn. Like-named read-outs stand apart in the source and are kept apart here.

Legend:
[1] = type: physicochemical; conditions: ^177Lu-A (3.6 mCi) prepared in presence of 2.5 mg/mL stabilizer
Procedure: To lead-shielded 4-mL vials was added 200 μL of the individual NaOAc-stabilizer solutions, 3.58 mCi ^177LuCl3 (avg) and 5.08 μg COMPOUND A (dissolved in water). The ratio of COMPOUND A to Lutetium was 3:1 for all samples. The reaction mixtures were heated to 100° C. for 5 minutes, then cooled, treated with Na2EDTA.2H2O, subdivided and stored as described in Example 9. The radiochemical purity (RCP) percentage data obtained are listed Table 12.

[2] = type: physicochemical; conditions: ^177Lu-A (2.7-3.7 mCi) prepared in presence of 1 mg/mL stabilizer; for RCP % t = 24 h (frozen): 24 h frozen (−10° C.)
Procedure: The injection volume was 10 μL.
Each individual stabilizer was prepared at a concentration of 1 mg/mL in sodium acetate (NaOAc) buffer (0.2 M, pH 4.8). […] The reaction mixture was heated to 100° C. for 5 minutes, and then cooled for 5 minutes in an ambient-temperature water hath. To each sample, 10 μL of 2% Na2EDTA.2H2in water was added, and then each was divided into two 100-μL aliquots. One aliquot was analyzed by HPLC (Method 5) and then stored at room temperature in a sealed lead container for 24 hours. The other aliquot was stored frozen (−10° C.) for 24 hours. Each sample was analyzed at t=24 h.

[3] = type: physicochemical; conditions: for Replicate 1 RCP % t = 0 h: ^177Lu-A (3.55 mCi avg) prepared in presence of 5 mg/mL stabilizer, HPLC Method 1, t = 0 h; for Replicate 2 RCP % t = 0 h / Replicate 2 RCP % t = 24 h: ^177Lu-A (4.37 mCi avg) prepared in presence of 5 mg/mL stabilizer; for Replicate 2 RCP % t = 0 h: HPLC Method 2, t = 0 h; for Replicate 2 RCP % t = 24 h: HPLC Method 2, t = 24 h
Procedure: (§1) The injection volume was 20 μL.
Each stabilizer was prepared at a concentration of 5 mg/mL in sodium acetate (NaOAc) buffer (0.2 M, pH 4.8). To lead-shielded 4-mL vials were added 200 μL of the individual stabilizer solutions, 3.55 mCi ^177LuCl3 (avg) and 5.44 μg COMPOUND A (dissolved in water). A second set of replicates of each sample was prepared, using the individual stabilizers. To these was added 4.37 mCi ^177LuCl3 (avg) and 6.7 μg (avg) COMPOUND A (dissolved in water). The ratio of COMPOUND A to lutetium was 3:1 for all samples. The reaction mixture was heated to 100° C. for 5 minutes then cooled for 5 minutes in an ambient-temperature water bath. To each sample, 10 μL of 2% Na2EDTA.2H2O in water was added, then each was analyzed by HPLC (Method 1 for the first set of replicates; Method 2 for the second set of replicates). The second set of replicates were stored and analyzed again at t=24 h.

[4] = type: physicochemical; conditions: for RCP % t = 0 h: ^177Lu-A (4.80 mCi) prepared in presence of stabilizer 5 mg/mL; for RCP % t = 24 h / RCP % t = 48 h / RCP (%) t = 72 h: ^177Lu-A prepared in presence of stabilizer 5 mg/mL, room temperature
Procedure: Solutions of L-cysteine ethyl ester hydrochloride and L-cysteine methyl ester hydrochloride (5 mg/mL) were prepared by dissolving them in NaOAc buffer (0.2 M, pH 4.8). To lead-shielded 4-mL vials were added 200 μL of the individual NaOAc-stabilizer solutions, 4.80 mCi ^177LuCl3 and 7.26 μg COMPOUND A (dissolved in water). The ratio of COMPOUND A to Lutetium was 3:1 for all samples. The reaction mixtures were heated, cooled, treated with Na2EDTA.2H2O and analyzed by HPLC as described in Example 13, and then each was stored at room temperature for 72 hours. Each sample was analyzed by HPLC (Method 2) at t=0, 24, 48 and 72 h.

[5] = type: physicochemical; conditions: for (% RCP) 3-h / (% RCP) 6-h / (% RCP) 9-h / (% RCP) 12-h / (% RCP) 24-h / (% RCP) 0-h: ^177Lu-B (44-53 mCi) formulated with 5 mg stabilizing compound; for (% RCP) 0-h: diluted to ~2 mL, ~6° C. above room temperature; for RCP Drop over 24 hr: ^177Lu-B formulated with 5 mg stabilizing compound, 0 to 24 h
Procedure: The reaction vial was crimp-sealed and heated at 100° C. for 5 min. […] The sample was stored in an autosampler in which the temperature is ˜6° C. […] than room temperature, and analyzed by RP-HPLC for up to 24 hours.
L-Selenomethionine: ^177Lu-B was prepared, diluted and analyzed as described above, but 5 mg of L-Se-Met was used in place of PDTC, the heating time was 10 minutes, and the quantity of radioactivity used was 52 mCi.
L-cysteine ethyl ester, HCl: ^177Lu-B was prepared, diluted and analyzed as described above, but 5 mg of L-CEE, hydrochloride salt was used in place of PDTC, the heating time was 5 minutes and the quantity of radioactivity used was 50 mCi.
L-cysteine HCl.H2O: ^177Lu-B was prepared, diluted and analyzed as described above, but 5 mg of L-Cys HCl.H2O was used in place of PDTC, the heating time was 8 minutes and the quantity of radioactivity used was 53 mCi.

[6] = type: physicochemical; conditions: stabilizer 5 mg/mL added after complex preparation; for RCP % t = 0 h: ^177Lu-A (3.34 mCi avg per aliquot), analysed 1-3.5 hrs after preparation; for RCP % t = 24 h: ^177Lu-A, room temperature
Procedure: In this study, sulfur-containing compounds were tested. Cysteine has been used as an antioxidant for many drugs that contain oxidizable residues.
Solutions of each individual stabilizer (10 mg/mL) were prepared in water. To a lead-shielded 4-mL vial was added 300 μL of NaOAc buffer (0.2M, pH 4.8), 29.0 mCi ^177LuCl3 and 41.4 μg COMPOUND A (dissolved in water). The ratio of COMPOUND A to Lutetium was 3:1. The reaction mixture was heated, cooled, treated with Na2EDTA.2H2O and analyzed by HPLC as described in Example 13. Seven 50-μL aliquots (3.34 mCi ^177Lu avg each) were transferred to individual HPLC vials. To one aliquot, 50 μL of water was added for use as a control sample (no stabilizer). To the other six aliquots, 50 μL of an individual stabilizer solution (0.5 mg of stabilizer) was added, and then each was analyzed by HPLC (Method 2). The control sample, and L-cysteine ethyl ester hydrochloride and L-cysteine methyl ester hydrochloride samples were analyzed again after 24 hours of storage at room temperature.

[7] = type: physicochemical; conditions: ^177Lu-A 13.9 mCi/mL, stabilizer 5 mg/mL added after complex preparation, room temperature
Procedure: as §1
Compounds containing the —C═S moiety [dithiocarbamates and ethionamide] were examined in this study.
Each individual stabilizer was prepared at a concentration of 10 mg/mL in water. Ethionamide was dissolved in EtOH. […] The reaction mixture was heated to 100° C. for 5 minutes, then cooled for 5 minutes in an ambient-temperature water bath. […] To an aliquot, 100 μL of one of the stabilizer solutions (1 mg of stabilizer) was added. Each aliquot was analyzed (t=0 h) by HPLC (Method 2) and stored at room temperature for 48 hours. All samples were analyzed again at t=24 h and 48 h.

[8] = type: physicochemical; conditions: for RCP % t = 0 h: ^177Lu-A (5.25 mCi avg) prepared in presence of stabilizer ~3.33 mg/mL
Procedure: as §1
Ethionamide was prepared at a 10 mg/mL concentration by dissolving it in EtOH. […] Another sample was prepared to which was added 100 μL of ethanol only (no stabilizer), for use as a control sample. […] The reaction mixture was heated to 100° C. for 5 minutes then cooled for 5 minutes in an ambient-temperature water bath. To each sample, 10 μL of 2% Na2EDTA.2H2O in water was added, and then each was analysed by HPLC (Method 2) and stored at room temperature for up to 96 hours.

[9] = ^177Lu-A prepared in presence of stabilizer ~3.33 mg/mL, room temperature

## O=C([O-])c1cc(O)ccc1O.[Na+] [Gentisic acid, 2,5-Dihydroxybenzoic acid sodium salt hydrate (Gentisic acid)]
[1]
  RCP % t = 24 h (frozen): 82.8%
  RCP % t = 24 h (room temp): 78.6%
  RCP % t = 0 h: 100%
[2]
  RCP % t = 24 h (frozen): 84.3%
  RCP % t = 24 h (room temp): 64.9%
  RCP % t = 0 h: 100%
[3]
  Replicate 1 RCP % t = 0 h: 93.9%
  Replicate 2 RCP % t = 0 h: 96.6%
  Replicate 2 RCP % t = 24 h: 75.2%

## CCOC(=O)[C@@H](N)CS [L-cysteine ethyl ester hydrochloride]
[4]
  RCP % t = 0 h: 100%
  RCP % t = 24 h: 96.5%
  RCP % t = 48 h: 93.5%
  RCP (%) t = 72 h: 87.4%
[5]
  (% RCP) 3-h: 96.9%
  (% RCP) 6-h: 94.7%
  (% RCP) 9-h: 92.8%
  (% RCP) 12-h: 92.2%
  (% RCP) 24-h: 85.1%
  (% RCP) 0-h: 98.4%
  RCP Drop over 24 hr: 13.3%
[6]
  RCP % t = 0 h: 91.5%
  RCP % t = 24 h: 73.2%

## CSCC[C@@H](N)C(=O)O [D-Methionine]
[1]
  RCP % t = 24 h (frozen): 100%
  RCP % t = 24 h (room temp): 99.6%
  RCP % t = 0 h: 100%
[2]
  RCP % t = 24 h (frozen): 100%
  RCP % t = 24 h (room temp): 100%
  RCP % t = 0 h: 100%
[3]
  Replicate 1 RCP % t = 0 h: 100%
  Replicate 2 RCP % t = 0 h: 97.6%
  Replicate 2 RCP % t = 24 h: 80.7%

## O=C1O[C@H]([C@@H](O)CO)C([O-])=C1O.[Na+] [Ascorbic acid, Sodium L-ascorbate (Ascorbic acid)]
[1]
  RCP % t = 24 h (frozen): 78.4%
  RCP % t = 24 h (room temp): 88.1%
[2]
  RCP % t = 0 h: 98.7%
[3]
  Replicate 1 RCP % t = 0 h: 87.6%
  Replicate 2 RCP % t = 0 h: 30.2%
  Replicate 2 RCP % t = 24 h: 24.5%

## N[C@@H](CS(=O)O)C(=O)O.O [L-cysteinesulfinic acid monohydrate]
[6]
  RCP % t = 0 h: 75.0%

## S=c1[nH]c(=S)[nH]c(=S)[nH]1 [Trithiocyanuric acid trisodium salt nonahydrate]
[7]
  RCP % t = 0 h: 96.9%
  RCP % t = 24 h: 95.9%
  RCP % t = 48 h: 100%
[8]
  RCP % t = 0 h: 100%
[8]; [9]
  RCP % t = 24 h: 100%
[8]; ^177Lu-A prepared in presence of stabilizer ~3.33 mg/mL, room temperature, 96 h
  RCP % t = 96 h: 0%

## Cl.Cl.NCCSSCCN [Cystamine dihydrochloride]
[6]
  RCP % t = 0 h: 66.2%

## CCN(CC)C(=S)S [Sodium diethyldithiocarbamate trihydrate, Diethyldithiocarbamate sodium salt]
[7]
  RCP % t = 0 h: 97.8%
  RCP % t = 24 h: 97.1%
  RCP % t = 48 h: 96.2%
[8]
  RCP % t = 0 h: 52.8%
[8]; [9]
  RCP % t = 24 h: 0%

## COC(=O)[C@@H](N)CS [L-cysteine methyl ester hydrochloride]
[4]
  RCP % t = 0 h: 100%
  RCP % t = 24 h: 97.1%
  RCP % t = 48 h: 93.7%
  RCP (%) t = 72 h: 87.2%
[6]
  RCP % t = 0 h: 90.4%
  RCP % t = 24 h: 74.4%

## COC(=O)[C@@H](N)CSSC[C@H](N)C(=O)OC.Cl.Cl
[6]
  RCP % t = 0 h: 70.1%

## N[C@@H](CS)C(=O)O [L-cysteine, L-cysteine hydrochloride monohydrate]
[1]
  RCP % t = 24 h (frozen): 51.0%
  RCP % t = 24 h (room temp): 88.3%
  RCP % t = 0 h: 100%
[2]
  RCP % t = 24 h (frozen): 82.1%
  RCP % t = 24 h (room temp): 83.3%
  RCP % t = 0 h: 100%
[5]
  (% RCP) 3-h: 94.7%
  (% RCP) 6-h: 87.3%
  (% RCP) 9-h: 79.4%
  (% RCP) 12-h: 73.6%
  (% RCP) 24-h: 50.9%
  (% RCP) 0-h: 99.1%
  RCP Drop over 24 hr: 48.2%
[3]
  Replicate 1 RCP % t = 0 h: 93.3%
  Replicate 2 RCP % t = 0 h: 91.0%
  Replicate 2 RCP % t = 24 h: 67.4%

## CCOC(=O)[C@@H](N)CSSC[C@H](N)C(=O)OCC.Cl.Cl [L-cysteine diethyl ester dihydrochloride]
[6]
  RCP % t = 0 h: 61.5%
